For eleven molecules, IC50 results are on record in patent publication US20240425479A1, “HALO-SUBSTITUTED AMINO AZA-HETEROARYL COMPOUNDS AS INHIBITORS OF THE HAEMATOPOIETIC PROGENITOR KINASE 1 (HPK1)” (priority 2021, published 2024).

The structures appear in SMILES notation.

One test addresses Lck (h) (Homo sapiens, UniProt P06239). Nature of the test: Lck human STE kinase enzymatic radiometric assay. Conditions: read-out: Lck IC50 nM Range. The format is biochemical.
The target in test [1] is T1, Recombinant (1-346) HPK1 (h) (Homo sapiens, UniProt Q92918).
T1 construct: Recombinant (1-346) HPK1 (h) is incubated with 8 mM MOPS pH 7.0
T1 sequence (Q92918 1-346): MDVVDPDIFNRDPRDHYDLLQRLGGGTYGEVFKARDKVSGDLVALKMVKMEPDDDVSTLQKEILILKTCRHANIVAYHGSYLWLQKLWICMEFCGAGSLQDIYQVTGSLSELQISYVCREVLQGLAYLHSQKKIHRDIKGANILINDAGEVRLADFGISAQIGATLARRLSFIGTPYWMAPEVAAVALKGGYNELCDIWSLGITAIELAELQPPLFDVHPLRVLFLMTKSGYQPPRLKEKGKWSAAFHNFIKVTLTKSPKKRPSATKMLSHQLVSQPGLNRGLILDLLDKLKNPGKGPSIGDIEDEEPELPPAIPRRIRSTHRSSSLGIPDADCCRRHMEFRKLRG
Kind of test: HPK1 human STE kinase enzymatic radiometric assay. The following applies: read-out: HPK1 IC50 nM Range. The format is biochemical. A digest of the protocol: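 Compounds in 3-fold, 9-point serial dilution; kinase (residues 1-346) phosphorylates myelin basic protein (0.33 mg/mL) using [gamma-33P]-ATP at pH 7.0 (MOPS, EDTA, Mg acetate) for 40 min, room temperature. Acid-quenched mixture filtered onto P30 mats; incorporated radioactivity read by scintillation counting.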

Lck (h), sequence (P06239 whole entry): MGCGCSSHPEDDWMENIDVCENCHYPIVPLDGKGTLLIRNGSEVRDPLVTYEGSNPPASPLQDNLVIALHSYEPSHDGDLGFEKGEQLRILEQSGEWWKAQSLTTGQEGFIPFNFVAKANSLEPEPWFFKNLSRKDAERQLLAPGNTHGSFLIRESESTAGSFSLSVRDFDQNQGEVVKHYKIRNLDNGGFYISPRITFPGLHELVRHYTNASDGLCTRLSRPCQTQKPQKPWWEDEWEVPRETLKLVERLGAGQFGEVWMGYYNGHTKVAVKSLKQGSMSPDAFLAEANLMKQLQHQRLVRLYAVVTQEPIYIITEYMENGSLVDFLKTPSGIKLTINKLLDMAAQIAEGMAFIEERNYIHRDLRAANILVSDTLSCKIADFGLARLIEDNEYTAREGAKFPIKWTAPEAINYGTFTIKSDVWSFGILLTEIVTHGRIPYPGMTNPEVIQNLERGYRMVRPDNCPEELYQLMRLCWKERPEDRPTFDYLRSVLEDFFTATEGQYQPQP

For orientation: IC50 means the concentration that inhibits the measured activity by half. For the molecule `Nc1nc(F)c(-c2ccc(N3CCOCC3)c(CN3CCCC3)c2)nc1-c1ccc2c(c1)CCNC2=O` [Example I-113, 6-(3-amino-5-fluoro-6-(4-morpholino-3-(pyrrolidin-1-ylmethyl)phenyl)pyrazin-2-yl)-3,4-dihydroisoquinolin-1(2H)-one], the values for the IC50 (at Lck (h); in test [1]) were > 1000 nM and 0.1 to 10 nM, respectively.

Take `CNCC1Cc2cc(-c3nc(-c4ccc(N5CCOCC5)cc4)c(F)nc3N)ccc2C(=O)N1` (stereo not shown) [Example I-12, 6-(3-amino-5-fluoro-6-(4-morpholinophenyl)pyrazin-2-yl)-3-((methylamino)methyl)-3,4-dihydroisoquinolin-1(2H)-one]: the IC50 on Lck (h) was > 1000 nM; in test [1], 0.1 to 10 nM.

For the molecule `Nc1nc(F)c(-c2ccc(N3CCOCC3)c(CN3CCC3)c2)nc1-c1cc2c(cc1F)C(=O)NCC2` [Example I-145, 6-(3-amino-6-(3-(azetidin-1-ylmethyl)-4-morpholinophenyl)-5-fluoropyrazin-2-yl)-7-fluoro-3,4-dihydroisoquinolin-1(2H)-one], the concentration for half-maximal inhibition (IC50) on Lck (h) is > 1000 nM; in test [1], 0.1 to 10 nM.

In the case of `Cc1nc2cc(-c3nc(-c4ccc(C5CCOCC5)c(CN(C)C)c4)c(F)nc3N)ccc2c(=O)[nH]1` [Example I-92, 7-(3-amino-6-(3-((dimethylamino)methyl)-4-(tetrahydro-2H-pyran-4-yl)phenyl)-5-fluoropyrazin-2-yl)-2-methylquinazolin-4(3H)-one], the IC50 was > 1000 nM at Lck (h) and 0.1 to 10 nM in test [1].

In the case of `CCN1CCN(c2ccc(-c3nc(-c4ccc5c(=O)[nH]ccc5c4)c(N)nc3F)cc2)CC1` [Example I-32, 6-(3-amino-6-(4-(4-ethylpiperazin-1-yl)phenyl)-5-fluoropyrazin-2-yl)isoquinolin-1(2H)-one], the IC50 on Lck (h) is > 1000 nM; in test [1] it was 0.1 to 10 nM.

Take `CN(C)Cc1cc(-c2nc(-c3cc4c(cc3F)C(=O)NCC4)c(N)nc2F)ccc1C1CCOCC1` [Example I-60, 6-(3-amino-6-(3-((dimethylamino)methyl)-4-(tetrahydro-2H-pyran-4-yl)phenyl)-5-fluoropyrazin-2-yl)-7-fluoro-3,4-dihydroisoquinolin-1(2H)-one]: the IC50 is > 1000 nM on Lck (h) and 0.1 to 10 nM in test [1].

Regarding `CC(C)N1CCN(c2ccc(-c3nc(-c4cc5c(cc4F)C(=O)NCC5)c(N)nc3Cl)cc2)CC1` [Example I-8, 6-(3-amino-5-chloro-6-(4-(4-isopropylpiperazin-1-yl)phenyl)pyrazin-2-yl)-7-fluoro-3,4-dihydroisoquinolin-1(2H)-one], the IC50 on Lck (h) was > 1000 nM; in test [1], 11 to 100 nM.

On to `CC(C)N1C[C@@H]2C[C@]2(c2ccc(-c3nc(-c4cc5c(cc4F)C(=O)NCC5)c(N)nc3F)cc2)C1` [Example I-6, 6-(3-amino-5-fluoro-6-(4-((1S,5R)-3-isopropyl-3-azabicyclo[3.1.0]hexan-1-yl)phenyl)pyrazin-2-yl)-7-fluoro-3,4-dihydroisoquinolin-1(2H)-one], for which the IC50 at Lck (h) lay within 101 to 1000 nM; in test [1], 0.1 to 10 nM.

On to `CC(C)N1CCN(c2ccc(-c3nc(-c4ccc5c(=O)[nH]cnc5c4)c(N)nc3F)cc2)CC1` [Example I-37, 7-(3-amino-5-fluoro-6-(4-(4-isopropylpiperazin-1-yl)phenyl)pyrazin-2-yl)quinazolin-4(3H)-one], for which the IC50 at Lck (h) was > 1000 nM; in test [1], 0.1 to 10 nM.

Take `CC(C)N1CCN(c2ccc(-c3nc(-c4cc5cc[nH]c(=O)c5cc4F)c(N)nc3F)cc2)CC1` [Example I-22, 6-(3-amino-5-fluoro-6-(4-(4-isopropylpiperazin-1-yl)phenyl)pyrazin-2-yl)-7-fluoroisoquinolin-1(2H)-one]: the IC50 lay within 101 to 1000 nM on Lck (h) and 0.1 to 10 nM in test [1].

Regarding `CCN(C)Cc1cc(-c2nc(-c3ccc4c(=O)[nH]cc(F)c4c3)c(N)nc2F)ccc1C1CCOCC1` [Example I-238, 6-(3-amino-6-(3-((ethyl(methyl)amino)methyl)-4-(tetrahydro-2H-pyran-4-yl)phenyl)-5-fluoropyrazin-2-yl)-4-fluoroisoquinolin-1(2H)-one], the figures for the IC50 (on Lck (h); in test [1]) were > 1000 nM and 0.1 to 10 nM, respectively.
